Series [1] in a line: Solid-state stability on storage at controlled temperature and relative humidity or on heating. Particulars: for Stability on storage (form conversion): about 60° C. and about 75% relative humidity; for Stability on heating (form conversion): heated at about 80° C.
Series [2] is described as follows: Relative solubility in water.
A short description of series [3]: Moisture adsorption/desorption isotherm (moisture balance). It is filed as physicochemical. Particulars: for Hygroscopicity from moisture adsorption/desorption curves: 25° C., 5 to 95% relative humidity. Here is the method:
Moisture adsorption; desorption data were collected on a VTI SGA-100 moisture balance system. available from VTI Corporation of Hialeah, Fla. For adsorption isotherms an adsorption range of 5 to 95% relative humidity and a desorption range of 95 to 5% relative humidity in 10% relative humidity increments were used for analysis. The samples were not dried prior to analysis. Equilibrium criteria used for analysis were less than 0.0100 weight percent change in 5 minutes with a maximum equilibration time of 3 hours if the weight criterion was not met. Data were not corrected for the initial moisture content of-the samples.

Data on three compounds can be found in patent US20050176735A1, “Polymorphs of zaleplon and methods for the preparation thereof” (priority 2000, published 2005).

`CCN(C(C)=O)c1cccc(-c2ccnc3c(C#N)cnn23)c1` [Form II, N-[3-(3-cyanopyrazolo[1,5a]pyrimidin-7-yl)phenyl]-N-ethylacetamide]: the “Form conversion in solvent” value (solvent system containing an organic solvent and optionally water) is recorded as “converts into Form III”. The “Form conversion in water” value (water) was “converted into Form III”. In series [1] (about 40° C. and about 75% relative humidity for 4 weeks), the Stability on storage entry was “stable”. Besides, the “Stability on storage (form conversion)” value in series [1] (4 weeks (same time period)) was “converts into Form I”. Also, the “Stability on heating (form conversion)” value in series [1] is given as “converts into Form I”. Further, in series [2], the “Solubility in water relative to the other form” value is “mole soluble in water than Form III”. The “Hygroscopicity from moisture adsorption/desorption curves” value in series [3] is listed as “moisture content of Form II of zaleplon varies depending on the relative humidity of its environment”.
Take `CCN(C(C)=O)c1cccc(-c2ccnc3c(C#N)cnn23)c1` [Form III, N-[3-(3-cyanopyrazolo[1,5a]pyrimidin-7-yl)phenyl]-N-ethylacetamide]: the “Relative stability in aqueous and non-aqueous environments” value (aqueous and non-aqueous environments) is “more stable in aqueous and non-aqueous environments than Form II”. Moreover, in series [1] (about 40° C. and about 75% relative humidity, time not stated), the “Stability on storage of hydrates (form conversion)” value is “resulting in a mixture of Forms II and III”. Also, in series [1] (time not stated), the “Stability on storage (form conversion)” value was “converts to Form I”. In addition, the “Stability on heating (form conversion)” value in series [1] is recorded as “converts to Form I”. The “Relative humidity up to which the form is generally anhydrous” value in series [3] (relative humidity) is recorded as “about 30%”.
Turning to `CCN(C(C)=O)c1cccc(-c2ccnc3c(C#N)cnn23)c1` [Form I, N-[3-(3-cyanopyrazolo[1,5a]pyrimidin-7-yl)phenyl]-N-ethylacetamide], the “Relative stability versus the other forms” value in series [1] (absence of water) was “more stable than Forms II and III”. Besides, the “General stability to humidity and temperature” value in series [1] (broad range of humidity and temperature conditions) was “stable”. Further, in series [3], the “Hygroscopicity from moisture adsorption/desorption curves” value is listed as “non-hygroscopic”.
